In patent US20100069347A1, “HETEROCYCLYL-SUBSTITUTED ANTI-HYPERCHOLESTEROLEMIC COMPOUNDS” (priority 2006, published 2010):

How the values were obtained:
[1] = tested on: cholesterol absorption; assay: Cholesterol Absorption Assay in Rat; type: in vivo; conditions: CD male rats, oral dosing, at the highest dose tested (0.0003 to 1 mg/kg); [3H]-cholesterol counts in liver and plasma
Procedure: Compounds of this invention were determined to inhibit cholesterol absorption employing the Cholesterol Absorption Assay in Rat, below. This assay involves comparing a test compound to ezetimibe with respect to their ability to inhibit cholesterol absorption in rat.
Cholesterol Absorption Assay in Rats: CD male rats (n=5/group), aged 5 weeks, were dosed orally with 0.5 ml 0.25% methyl cellulose solution with or without test compound or ezetimibe (0.0003 to 1 mg/kg). 0.5 to 16 hrs later all of the rats were dosed orally with 0.5 ml INTRALIPID® containing 5 μCi [^3H]-cholesterol per rat. Five hours later, the animals were euthanized, and liver and blood were collected. Cholesterol counts in liver and plasma were determined, and percent inhibition of cholesterol absorption was calculated.

| melting point [°C] | SMILES | inhibition of cholesterol absorption [1] [%] |
| --- | --- | --- |
| 104 | O=C1[C@H](CC[C@H](O)c2ccc(F)cc2)[C@@H](c2ccc(CCC(O)(CO)CO)cc2)N1c1ccc(CCc2nc[nH]n2)cc1 [Example 2, (3R,4S)-4-{4-[3,4-dihydroxy-3-(hydroxymethyl)butyl]phenyl}-3-[(3S)-3-(4-fluorophenyl)-3-hydroxypropyl]-1-{4-[2-(1H-1,2,4-triazol-5-yl)ethyl]phenyl}azetidin-2-one] |  |
|  | O=C1[C@H](CC[C@H](O)c2ccc(F)cc2)[C@@H](c2ccc(O)cc2)N1c1ccc(F)cc1 [ezetimibe, Ezetimibe] | > 90 |
